Test results as given in patent US20250275539A1, “APYRASE INHIBITORS” (Texas Crop Science, Inc., priority 2024, published 2025).

tested on: apyrase; experiment: Apyrase inhibition assay (screen for apyrase inhibitors, phosphate release read at 630 nm); type: biochemical; settings: inhibitor conc at 1 mM (10 μl added), 3 mM ATP, pH 6.5, room temperature 1 hr
Description: Apyrase inhibitors useful as enhancers of pesticidal activity are assessed using an in vitro assay. The method of Windsor, Bio Techniques 33:1024-1030 (November 2002) was used as follows
• 96 well plates were used for the assay: (Greiner bio-one: REF-655901-96 well, PS, F-bottom, Clear, Non-binding)
• Reaction Buffer: 60 mM Hepes; 3 mM MgCl2, 3 mM CaCl2) and 3 mM ATP (pH 6.5) • Development Buffer A: 2% aqueous ammonium molybdate • Development Buffer B: 11% ascorbic acid in 37.5% TCA in water • Stop buffer C: 2% trisodium citrate in 2% acetic acid solution in water
• Add 100 μl of reaction buffer to each well. • Add 10 μl of DMSO (control) or inhibitor/compound or compounds such as N1915 or orthovanadate to each well. (use inhibitor conc at 1 mM; orthovanadate at 2 mM and N1915 at 1 mM) • Add 10 μl of apyrase (concentration based on optimization—Dilute 1 U/μl enzyme to different concentrations such as 0.1 U, 0.05 U, 0.0025, 0.001 U, 0.0005 U—to find a good range) • Incubate plate at room temperature for 1 hr • Mix development buffer A and B in the ratio of 1:1.5 (just before use). • Add 50 μl of A: B mix in each well (incubate for 2 mins) • Add 50 μl of C in each well • Measure/Read Absorbance of plate @630 nm
Inhibitory data for the apyrase assay described above are provided for selected compounds in Table 3. D is inhibition of 0% to 10%, C is inhibition from 10% to 20%, B is inhibition from 20% to 30%, and A is inhibition above 30%. Blank entries signify compounds that were not tested.

Inhibition	SMILES
D (D is inhibition of 0% to 10%)	CCCc1ccc(S(=O)(=O)Nc2ccc(-c3ccnc(C)n3)cc2)cc1 [Compound A-40, N-(4-(2-methylpyrimidin-4-yl)phenyl)-4-propylbenzenesulfonamide]
D (D is inhibition of 0% to 10%)	CCCc1ccc(S(=O)(=O)Nc2ccc3[nH]ncc3c2)cc1 [Compound A-69, N-(1H-indazol-5-yl)-4-propylbenzenesulfonamide]
B (B is inhibition from 20% to 30%)	CCCc1ccc(S(=O)(=O)Nc2ccc(CC(C)C(=O)O)cc2)cc1 (stereo not drawn) [Compound A-19, 2-methyl-3-(4-((4-propylphenyl)sulfonamido)phenyl)propanoic acid]
D (D is inhibition of 0% to 10%)	CCCc1ccc(S(=O)(=O)Nc2ccccc2Cl)cc1 [Compound A-71, N-(2-chlorophenyl)-4-propylbenzenesulfonamide]
C (C is inhibition from 10% to 20%)	COC(=O)c1ccc(S(=O)(=O)Nc2cccc(C)c2)cc1 [Compound A-12, methyl 4-(N-(m-tolyl)sulfamoyl)benzoate]
D (D is inhibition of 0% to 10%)	CCCc1ccc(S(=O)(=O)Nc2ccc(Cn3cccn3)cc2)cc1 [Compound A-111, N-(4-((1H-pyrazol-1-yl)methyl)phenyl)-4-propylbenzenesulfonamide]
D (D is inhibition of 0% to 10%)	CCCc1ccc(S(=O)(=O)Nc2ccccc2Cn2cncn2)cc1 [Compound A-113, N-(2-((1H-1,2,4-triazol-1-yl)methyl)phenyl)-4-propylbenzenesulfonamide]
D (D is inhibition of 0% to 10%)	CCCc1ccc(S(=O)(=O)Nc2cc(C(=O)OC)ccc2S(N)(=O)=O)cc1 [Compound A-25, methyl 3-((4-propylphenyl)sulfonamido)-4-sulfamoylbenzoate]
C (C is inhibition from 10% to 20%)	CCCc1ccc(S(=O)(=O)Nc2ccc(O)c(NC(C)=O)c2)cc1 [Compound A-38, N-(2-hydroxy-5-((4-propylphenyl)sulfonamido)phenyl)acetamide]
C (C is inhibition from 10% to 20%)	CCCc1ccc(S(=O)(=O)Nc2ccc(S(C)(=O)=O)cc2)cc1 [Compound A-50, N-(4-(methylsulfonyl)phenyl)-4-propylbenzenesulfonamide]
C (C is inhibition from 10% to 20%)	Cc1cccc(NS(=O)(=O)c2ccc(C(N)=O)cc2)c1 [Compound A-18, 4-(N-(m-tolyl)sulfamoyl)benzamide]
D (D is inhibition of 0% to 10%)	CCCc1ccc(S(=O)(=O)Nc2ccccc2N2CCCC2=O)cc1 [Compound A-6, N-(2-(2-oxopyrrolidin-1-yl)phenyl)-4-propylbenzenesulfonamide]
C (C is inhibition from 10% to 20%)	Cc1cccc(NS(=O)(=O)c2ccc(C(=O)NCC(F)(F)F)cc2)c1 [Compound A-66, 4-(N-(m-tolyl)sulfamoyl)-N-(2,2,2-trifluoroethyl)benzamide]
B (B is inhibition from 20% to 30%)	COc1ccc(OC)c(NS(=O)(=O)c2ccc(-c3ccccc3)cc2)c1 [Compound A-4, N-(2,5-dimethoxyphenyl)-[1,1′-biphenyl]-4-sulfonamide]
C (C is inhibition from 10% to 20%)	CCCc1ccc(S(=O)(=O)Nc2c(C(C)C)cccc2C(C)C)cc1 [Compound A-76, N-(2,6-diisopropylphenyl)-4-propylbenzenesulfonamide]
D (D is inhibition of 0% to 10%)	CCCc1ccc(S(=O)(=O)Nc2ccccc2C(N)=O)cc1 [Compound A-86, 2-((4-propylphenyl)sulfonamido) benzamide]
D (D is inhibition of 0% to 10%)	Cc1cccc(NS(=O)(=O)c2ccc(S(=O)(=O)N3CCCC3)cc2)c1 [Compound A-60, 4-(pyrrolidin-1-ylsulfonyl)-N-(m-tolyl)benzenesulfonamide]
C (C is inhibition from 10% to 20%)	CCCc1ccc(S(=O)(=O)Nc2cc(OC)c(OC)cc2C(=O)OC)cc1 [Compound A-96, methyl 4,5-dimethoxy-2-((4-propylphenyl)sulfonamido) benzoate]
B (B is inhibition from 20% to 30%)	NC1CCN(S(=O)(=O)c2ccc(-c3ccccc3)cc2)CC1 [Compound A-33, 1-([1,1′-biphenyl]-4-ylsulfonyl)piperidin-4-amine]
D (D is inhibition of 0% to 10%)	COc1ccccc1Oc1ccc(S(=O)(=O)Nc2cccc(C)c2)cc1 [Compound A-100, 4-(2-methoxyphenoxy)-N-(m-tolyl)benzenesulfonamide]

Inhibition	SMILES
D (D is inhibition of 0% to 10%)	CCCc1ccc(S(=O)(=O)Nc2ccc(Cl)c(NC(C)=O)c2)cc1 [Compound A-119, N-(2-chloro-5-((4-propylphenyl)sulfonamido)phenyl)acetamide]
A (A is inhibition above 30%)	CCCc1ccc(S(=O)(=O)Nc2ccc3c(c2)CCN3C(C)=O)cc1 [Compound A-115, N-(1-acetylindolin-5-yl)-4-propylbenzenesulfonamide]
D (D is inhibition of 0% to 10%)	CCCc1ccc(S(=O)(=O)Nc2cccc(C(=O)O)c2)cc1 [Compound A-75, 3-((4-propylphenyl)sulfonamido) benzoic acid]
B (B is inhibition from 20% to 30%)	Cc1cccc(NS(=O)(=O)c2ccc(OCC(=O)O)cc2)c1 [Compound A-101, 2-(4-(N-(m-tolyl)sulfamoyl)phenoxy) acedtic acid]
B (B is inhibition from 20% to 30%)	CCCc1ccc(S(=O)(=O)Nc2ccc(-c3nc(C)cc(=O)[nH]3)cc2)cc1 [Compound A-120, N-(4-(4-methyl-6-oxo-1,6-dihydropyrimidin-2-yl)phenyl)-4-propylbenzenesulfonamide]
D (D is inhibition of 0% to 10%)	CCCc1ccc(S(=O)(=O)Nc2ccccc2-n2cnnc2C)cc1 [Compound A-22, N-(2-(3-methyl-4H-1,2,4-triazol-4-yl)phenyl)-4-propylbenzenesulfonamide]
D (D is inhibition of 0% to 10%)	Cc1cccc(NS(=O)(=O)c2ccccc2)c1 [Compound A-57, N-(m- tolyl)benzenesulfonamide]
C (C is inhibition from 10% to 20%)	CCCc1ccc(S(=O)(=O)Nc2ccc(S(=O)(=O)N=C3CCCCCN3)cc2)cc1 [Compound A-52, N-(azepan-2-ylidene)-4-((4-propylphenyl)sulfonamido) benzenesulfonamide]
B (B is inhibition from 20% to 30%)	CCCCc1ccc(NS(=O)(=O)c2ccc(CCC)cc2)cc1 [Compound A-83, N-(4-butylphenyl)-4-propylbenzenesulfonamide]
C (C is inhibition from 10% to 20%)	CCCc1ccc(S(=O)(=O)Nc2ccc(N3CCCS3(=O)=O)cc2)cc1 [Compound A-30, N-(4-(1,1-dioxidoisothiazolidin-2-yl)phenyl)-4-propylbenzenesulfonamide]
C (C is inhibition from 10% to 20%)	CCCc1ccc(S(=O)(=O)Nc2cccc(CN3CCOC3=O)c2)cc1 [Compound A-110, N-(3-((2-oxooxazolidin-3-yl)methyl)phenyl)-4-propylbenzenesulfonamide]
D (D is inhibition of 0% to 10%)	CCCc1ccc(S(=O)(=O)Nc2ccc(C)c(S(=O)(=O)N(C)C)c2)cc1 [Compound A-89, N,N,2-trimethyl-5-((4-propylphenyl)sulfonamido) benzenesulfonamide]
B (B is inhibition from 20% to 30%)	CCCc1ccc(S(=O)(=O)Nc2ccc(O)c(C(=O)O)c2)cc1 [Compound A-26, 2-hydroxy-5-((4-propylphenyl)sulfonamido) benzoic acid]
D (D is inhibition of 0% to 10%)	O=S(=O)(Nc1nnc[nH]1)c1ccc(-c2ccccc2)cc1 [Compound A-13, N-(4H-1,2,4-triazol-3-yl)-[1,1′-biphenyl]-4-sulfonamide]
D (D is inhibition of 0% to 10%)	CCCc1ccc(S(=O)(=O)Nc2ccc3c(c2)OCCO3)cc1 [Compound A-54, N-(2,3-dihydrobenzo[b][1,4]dioxin-6-yl)-4-propylbenzenesulfonamide]
D (D is inhibition of 0% to 10%)	CCCc1ccc(S(=O)(=O)Nc2ccc(-c3nnc4n3CCCCC4)cc2)cc1 [Compound A-93, 4-propyl-N-(4-(6,7,8,9-tetrahydro-5H-[1,2,4]triazolo[4,3-a]azepin-3-yl)phenyl) benzenesulfonamide]
A (A is inhibition above 30%)	O=S(=O)(NCc1ccc2c(c1)OCO2)c1ccc(-c2ccccc2)cc1 [Compound A-36, N-(benzo[d][1,3]dioxol-5-ylmethyl)-[1,1′-biphenyl]-4-sulfonamide]
C (C is inhibition from 10% to 20%)	CCCc1ccc(S(=O)(=O)Nc2c(F)cccc2F)cc1 [Compound A-87, N-(2,6-difluorophenyl)-4-propylbenzenesulfonamide]
D (D is inhibition of 0% to 10%)	O=S(=O)(Nc1ncccn1)c1ccc(-c2ccccc2)cc1 [Compound A-20, N-(pyrimidin-2-yl)-[1,1′-biphenyl]-4-sulfonamide]
